In patent US8524691B2, “Phosphonated rifamycins and uses thereof for the prevention and treatment of bone and joint infections” (The Medicines Company, priority 2008, dated 2013):
≈ marks a conversion by molar mass, not a printed value. Where “and” joins values, the source holds several entries; their conditions need not be identical. Identical values can stand only once. Like-named read-outs stand apart in the source and are kept apart here.

Experiments:
[1] = tested on: S. aureus ATCC 13709^A, Novobiocin and Rifampicin resistant variant; assay: Antibacterial susceptibility (MIC), NCCLS broth microdilution; format: cell-based
Experimental: (§1) Susceptibility of S. aureus strains to the known antibiotics and synthesized compounds was determined by following the guidelines set by NCCLS (M26-A). Compounds were diluted two-fold serially in DMSO and transferred to cation-adjusted Mueller Hinton broth (CAMHB; Becton Dickinson). 50 μL of compounds diluted in CAMHB was mixed with 100 μL of bacteria diluted in CAMHB in 96-well microtiter plates. The final concentration of micro-organisms in the assay was 5×10^5c.f.u. per mL and the final concentration of DMSO in the assay was 1.25%. Assays were set up in duplicate and incubated at 37° C. for 18 h. The lowest concentration of compound that inhibited visible growth was reported as the minimum inhibitory concentration (MIC).

[2] = tested on: S. aureus ATCC 29213; assay: as above; format: cell-based; settings: CAMHB, 37° C., 18 h
Experimental: as §1

[3] = tested on: S. aureus ATCC 13709; assay: microbe, parasite or virus in culture; format: cell-based; settings: for Serum dependence of antibacterial activity (in words): MIC with versus without serum; for MIC: Staphylococcus aureus, ATCC13709, 18 h
Experimental: as §1
Susceptibility testing experiments were also carried out in the presence of serum. These experiments were carried out similar to the susceptibility testing with the following modifications. 75 μL of compounds diluted in CAMHB was mixed with 75 μL of bacteria diluted in 100% serum from any given source (commercial pooled mouse serum (MS) and human serum (HS), Equitech-Bio Inc.) or diluted in 8% purified human serum albumin (HSA) (Calbiochem). The final concentration of animal serum in the assay was 50% and the final concentration of purified human serum albumin in the assay was 4%; the concentrations of all other components were identical to those described for susceptibility testing.

[4] = tested on: S. aureus ATCC 13709; assay: microbe, parasite or virus in culture; format: cell-based; settings: for Antibacterial activity (in words, from Table 1): S. aureus MIC
Experimental: as §1

[5] = tested on: Novobiocin resistant mutant strain of S. aureus ATCC 13709; assay: Prophylactic efficacy in rat model of S. aureus bone infection; format: in vivo; settings: tibia 24 h postinfection; for Measured bacterial titer, parent drug: rifabutin 20 mg/kg, listed as Parent drug
Experimental: To determine the in vivo activity of bisphosphonated prodrugs of Rifamycin derived antibacterials in comparison to their non-bisphosphonated parents, compounds 18, 19, 48a, 59, 66, 89, 95, 102, 110, 142b and 164 and their parent drug rifabutin were used as prophylactic therapeutics in an animal model of infection. Specifically, a spontaneous Novobiocin resistant mutant strain of S. aureus ATCC 13709 (a clinical osteomyelitis isolate), was grown overnight at 37° C. in brain heart infusion broth (BHIB). After 16 h of growth, cells were subcultured into fresh BHIB and incubated for 4 to 5 h at 37° C. The cells were washed twice with phosphate-buffered saline (PBS) and resuspended in BHIB supplemented with 10% (vol./vol.) fetal bovine serum at a density of approximately 10^10 colony forming units (CFU)/ml (based upon turbidimetry). The suspension was aliquoted and a portion was used to check the CFU count. The culture was stored frozen (−80° C.) and was used without subculture. For use as an inoculum the culture was thawed, diluted in PBS and kept in an ice bath until it was used.
Animals were infected as described by O'Reilly et al. (Antimicrobial Agents and Chemotherapy (1992), 36(12): 2693-97) to generate the bone infection. Female CD rats (age, 57 to 70 days; n=5/group; Charles River, St-Constant, Canada) were anaesthetized by isofluorane before and during the surgery. Following complete induction of anesthesia, the rat was placed ventral side up and hair was shaved from the surgical site. The skin over the leg was cleaned and disinfected (proviodine-ethanol 70%). A longitudinal incision below the knee joint was made in the sagital plane. The incision was made over the bone below the “knee joint” (tibia head or condyle) but not completely extending to the ankle. A high speed drill fitted with a 2 mm bulb bit was used to drill a hole into the medullar cavity of the tibia. Rats were injected intra-tibially with 0.05 ml 5% sodium morrhuate (sclerosing agent) and then with 0.05 ml of S. aureus suspension (ca. 2×10^7 CFU/rat). The hole was sealed by applying a small amount of dry dental cement which immediately absorbs fluids and adheres to the site. The wound was closed using 3 metal skin clips. Moxifloxacin (as a positive control) was injected once at 10 mg/kg intravenously 1 h postinfection in saline, while the Rifabutin derived prodrugs (prepared in 0.9% saline) were injected at the dose indicated in Table 3 as a single intravenous bolus at different time points prior to the infection.
Infected rats were sacrificed by CO2 asphyxiation 24 h postinfection to monitor the bacterial CFU count. Infected tibiae were removed, dissected free of soft tissue, and weighed. The bones were ground, 50 mg of charcoal were added and the powder was resuspended in 5 ml 0.9% NaCl, serially diluted and processed for quantitative cultures. Treatment efficacy was measured in terms of Log viable bacteria (Log CFU per gram of bone). […] The limit of detection is 2 Log CFU. Statistical comparisons of viable bacterial counts for the different treated and untreated groups were performed with the Dunnett's multiple-comparison test. Differences were considered significant when the P value was <0.05 when comparing treated infected animals to the untreated infected ones. The doses used, the amount of time separating the treatment from the time of infection and the treatment outcomes are shown in Table 3.

Row | Compound | Minimum inhibitory concentration, S. aureus ATCC 13709^A [1] | Minimum inhibitory concentration, S. aureus ATCC 29213 [2] | Minimum inhibitory concentration, ATCC 13709 + 50% Mouse Serum ([3]; 50% Mouse Serum) | Minimum inhibitory concentration, ATCC 13709 + 50% Rat Serum [3] | Minimum inhibitory concentration, S. aureus ATCC 13709 ([4]; CAMHB, 37° C., 18 h) | Minimum inhibitory concentration, ATCC 13709 + 50% Human Serum ([3]; 50% Human Serum) | other results
1 | CO[C@H]1/C=C/O[C@@]2(C)Oc3c(C)c(O)c4c(c3C2=O)C2=NC3(CCN(CC(C)C)CC3)NC2=C(NC(=O)/C(C)=C\C=C\[C@H](C)[C@H](OC(=O)CN(C)CC(=O)Nc2ccc(CC(P(=O)(O)O)P(=O)(O)O)cc2)[C@@H](C)[C@@H](O)[C@@H](C)[C@H](OC(C)=O)[C@@H]1C)C4=O [Compound 150] | >128 µg/mL | 64 µg/mL (≈ 51.6 µM) | 128 µg/mL | 16 µg/mL | 64 µg/mL (≈ 51.6 µM) |  | Minimum inhibitory concentration, ATCC 13709 + 50% Human Serum [3]: >128 µg/mL
2 | CO[C@H]1/C=C/O[C@@]2(C)Oc3c(C)c(O)c4c(c3C2=O)C2=NC3(CCN(CC(C)C)CC3)NC2=C(NC(=O)/C(C)=C\C=C\[C@H](C)[C@H](OC(=O)CN(C)CCOC(=O)CNC(=O)CCC(P(=O)(O)O)P(=O)(O)O)[C@@H](C)[C@@H](O)[C@@H](C)[C@H](OC(C)=O)[C@@H]1C)C4=O [Compound 42] | >128 µg/mL | 0.25 µg/mL (≈ 0.2 µM) | 0.125 µg/mL | 0.03125 µg/mL | 0.125 µg/mL (≈ 0.1 µM) | 0.0625 µg/mL | Antibacterial activity (in words, from Table 1) [4]: very low MICs whether in the absence or in the presence of serum
3 | CO[C@H]1/C=C/O[C@@]2(C)Oc3c(C)c(O)c4c(c3C2=O)C2=NC3(CCN(CC(C)C)CC3)NC2=C(NC(=O)/C(C)=C\C=C\[C@H](C)[C@H](OC(=O)CNC(=O)CCCNC(=O)NC(P(=O)(O)O)P(=O)(O)O)[C@@H](C)[C@@H](O)[C@@H](C)[C@H](OC(C)=O)[C@@H]1C)C4=O.N.N [Compound 155] | >128 µg/mL | 128 µg/mL |  | 8 µg/mL | 32 µg/mL | 128 µg/mL | Minimum inhibitory concentration, ATCC 13709 + 50% Mouse Serum [3]: >128 µg/mL; Antibacterial activity (in words, from Table 1) [4]: near complete loss of activity
4 | CO[C@H]1/C=C/O[C@@]2(C)Oc3c(C)c(O)c4c(c3C2=O)C2=NC3(CCN(CC(C)C)CC3)NC2=C(NC(=O)/C(C)=C\C=C\[C@H](C)[C@H](OC(=O)CN(C)C(=O)CNC(=O)[C@@H](Cc2ccccc2)NC(=O)CNC(=O)CCC(P(=O)(O)O)P(=O)(O)O)[C@@H](C)[C@@H](O)[C@@H](C)[C@H](OC(C)=O)[C@@H]1C)C4=O.N.N [Compound 79a] | >128 µg/mL | 16 µg/mL |  | 64 µg/mL | 16 µg/mL |  | Minimum inhibitory concentration, ATCC 13709 + 50% Human Serum [3]: >128 µg/mL; Minimum inhibitory concentration, ATCC 13709 + 50% Mouse Serum [3]: >128 µg/mL
5 | COc1c(N2C[C@@H]3CCCN[C@@H]3C2)c(F)cc2c(=O)c(C(=O)O)cn(C3CC3)c12 [Moxifloxacin, reference compound] |  |  |  |  |  |  | Measured bacterial titer, positive control ([5]; Moxifloxacin 10 mg/kg intravenously once 1 h postinfection, listed as Positive control): 2.62 ± 0.37 Log CFU/g of bone and 3.22 ± 0.65 Log CFU/g of bone and 2.27 ± 0.21 Log CFU/g of bone and 2.63 ± 0.65 Log CFU/g of bone and 2.06 ± 0.10 Log CFU/g of bone and 2.95 ± 1.07 Log CFU/g of bone and 2.2 ± 0.28 Log CFU/g of bone and 3.01 ± 0.74 Log CFU/g of bone
6 | CCN(CC)CC.CO[C@H]1/C=C/O[C@@]2(C)Oc3c(C)c(O)c4c(c3C2=O)C2=NC3(CCN(CC(C)C)CC3)NC2=C(NC(=O)/C(C)=C\C=C\[C@H](C)[C@H](OC(=O)CNC(=O)Nc2ccc(CC(P(=O)(O)O)P(=O)(O)O)cc2)[C@@H](C)[C@@H](O)[C@@H](C)[C@H](OC(C)=O)[C@@H]1C)C4=O [Compound 142a] | >128 µg/mL | 16 µg/mL | 16 µg/mL | 2 µg/mL | 16 µg/mL | 128 µg/mL | Serum dependence of antibacterial activity (in words) [3]: weak antibacterial activity does not show a serum dependence
7 | CO[C@H]1/C=C/O[C@@]2(C)Oc3c(C)c(O)c4c(c3C2=O)C2=NC3(CCN(CC(C)C)CC3)NC2=C(NC(=O)/C(C)=C\C=C\[C@H](C)[C@H](OC(=O)CN(C)C(=O)NC(P(=O)(O)O)P(=O)(O)O)[C@@H](C)[C@@H](O)[C@@H](C)[C@H](OC(C)=O)[C@@H]1C)C4=O [Compound 140] | >128 µg/mL | 16 µg/mL (≈ 14.1 µM) | 32 µg/mL | 4 µg/mL | 16 µg/mL (≈ 14.1 µM) | 128 µg/mL | Serum dependence of antibacterial activity (in words) [3]: weak antibacterial activity does not show a serum dependence
8 | CO[C@H]1/C=C/O[C@@]2(C)Oc3c(C)c(O)c4c(c3C2=O)C2=NC3(CCN(CC(C)C)CC3)NC2=C(NC(=O)/C(C)=C\C=C\[C@H](C)[C@H](O)[C@@H](C)[C@@H](O)[C@@H](C)[C@H](OC(C)=O)[C@@H]1C)C4=O [Rifabutin, reference compound] |  |  |  |  |  |  | MIC ([2]; Staphylococcus aureus, ATCC29213, read-out: Minimum inhibitory concentration, S. aureus ATCC 29213): 0.0156 µg/mL (≈ 0.0184 µM); MIC ([3]; read-out: Minimum inhibitory concentration, ATCC 13709 + 50% Human Serum): 0.0312 µg/mL; MIC ([3]; read-out: Minimum inhibitory concentration, ATCC 13709 + 50% Mouse Serum): 0.0625 µg/mL; MIC ([3]; read-out: Minimum inhibitory concentration, ATCC 13709 + 50% Rat Serum): 0.0312 µg/mL; Measured bacterial titer, parent drug ([5]; 1 day prior to infection): 2.03 ± 0.07 Log CFU/g of bone and 2.09 ± 0.06 Log CFU/g of bone and 2.03 ± 0.09 Log CFU/g of bone and 2.07 ± 0.09 Log CFU/g of bone and 2.35 ± 1.12 Log CFU/g of bone; Measured bacterial titer, parent drug ([5]; 5 days prior to infection): 2.75 ± 0.94 Log CFU/g of bone and 4.27 ± 1.91 Log CFU/g of bone and 4.34 ± 0.79 Log CFU/g of bone and 4.71 ± 1.05 Log CFU/g of bone; MIC ([4]; Staphylococcus aureus, ATCC13709, CAMHB, 37° C., 18 h, read-out: Minimum inhibitory concentration, S. aureus ATCC 13709): 0.0312 µg/mL (≈ 0.0369 µM)
